pIC50: −log10 of the molar value. Bounds are passed on as bounds.

This test relates to mutant Huntington (HTT) protein. In words: HTT Mutant HTRF iPSC assay (mHTT protein lowering). The following applies: human iPSC derived from a HTT patient with a poly-Q49 mutation. It is filed as cell-based.

As to `Cc1cn2nc(-c3cc(F)c4nc([C@H]5C[C@]6(CN[C@@H](C)C6)C5)cn4c3)cc(C)c2n1` (single isomer, unassigned) [Compound 177, 6-(8-fluoro-2-((2S*,4r,7S*)-7-methyl-6-azaspiro[3.4]octan-2-yl)imidazo[1,2-a]pyridin-6-yl)-2,8-dimethylimidazo[1,2-b]pyridazine], the pIC50 is greater than 7.00.

Compound `CCN1CCC(c2cn3cc(-c4cc(C)c5nn(C)cc5n4)cc(F)c3n2)CC1` [Compound 173, 5-(2-(1-ethylpiperidin-4-yl)-8-fluoroimidazo[1,2-a]pyridin-6-yl)-2,7-dimethyl-2H-pyrazolo[4,3-b]pyridine] gave a pIC50 of 6.00 to 7.00.

For `Cc1cn2nc(-c3cc(F)c4nc(N5CCC6(CN(C)C6)C5)oc4c3)cc(C)c2n1` [Compound 472, 6-(2,8-dimethylimidazo[1,2-b]pyridazin-6-yl)-4-fluoro-2-(2-methyl-2,6-diazaspiro[3.4]octan-6-yl)benzo[d]oxazole], the negative-log IC50 (pIC50) was 6.00 to 7.00.

`Cc1cn2nc(-c3cc(F)c4nc(NC(=O)CC5CCCN5)cn4c3)cc(C)c2n1` (stereo not shown) [Compound 273, N-(6-(2,8-dimethylimidazo[1,2-b]pyridazin-6-yl)-8-fluoroimidazo[1,2-a]pyridin-2-yl)-2-(pyrrolidin-2-yl)acetamide] had a negative-log IC50 (pIC50) greater than 7.00.

As for `Cc1cn2nc(-c3cc(F)c4nn(C5CCNC(C)(C)C5)nc4c3)cc(C)c2n1` (racemic) [Compound 394, 6-(2,8-dimethylimidazo[1,2-b]pyridazin-6-yl)-2-(2,2-dimethylpiperidin-4-yl)-4-fluoro-2H-benzo[d][1,2,3]triazole], the pIC50 was 6.00 to 7.00.

In the case of `Fc1ccc2nc(-c3cc(F)c4nc(C5CCNCC5)cn4c3)cn2c1` [Compound 122, 6,8′-difluoro-2′-(piperidin-4-yl)-2,6′-biimidazo[1,2-a]pyridine], the negative logarithm of the IC50 (pIC50) is 5.05 to 6.00.

On to `Cc1cn2nc(-c3cc(F)c4nc(N5CCC6(CCN(C)CC6)C5)oc4c3)cc(C)c2n1` [Compound 468, 6-(2,8-dimethylimidazo[1,2-b]pyridazin-6-yl)-4-fluoro-2-(8-methyl-2,8-diazaspiro[4.5]decan-2-yl)benzo[d]oxazole], for which the pIC50 is greater than 7.00.

`Cc1cn2nc(-c3cc(F)c4nc(NC5CCN6CCCC6C5)oc4c3)cc(C)c2n1` (stereo not shown) [Compound 482, 6-(2,8-dimethylimidazo[1,2-b]pyridazin-6-yl)-4-fluoro-N-(octahydroindolizin-7-yl)benzo[d]oxazol-2-amine]: the pIC50 is greater than 7.00.

The compound `Cc1cn2nc(-c3cc(F)c4nc(N5CCC(C)(CN(C)C)C5)oc4c3)cc(C)c2n1` (stereo not shown) [Compound 474, 1-(1-(6-(2,8-dimethylimidazo[1,2-b]pyridazin-6-yl)-4-fluorobenzo[d]oxazol-2-yl)-3-methylpyrrolidin-3-yl)-N,N-dimethylmethanamine] showed a pIC50 of 6.00 to 7.00.

`Cc1cn2nc(-c3cc(F)c4nc(NC(=O)C5CCNC6CC65)cn4c3)cc(C)c2n1` (stereo not shown) [Compound 271, N-(6-(2,8-dimethylimidazo[1,2-b]pyridazin-6-yl)-8-fluoroimidazo[1,2-a]pyridin-2-yl)-2-azabicyclo[4.1.0] heptane-5-carboxamide] showed a pIC50 greater than 7.00.

`Cn1nc2cc(-c3cc(F)c4nc(C5CCNCC5)cn4c3)cc(F)c2n1` [Compound 87, 4-fluoro-6-(8-fluoro-2-(piperidin-4-yl)imidazo[1,2-a]pyridin-6-yl)-2-methyl-2H-benzo[d][1,2,3]triazole] showed a pIC50 of 6.00 to 7.00.

In turn, `Cc1cn2cc(-c3cc(F)c4nc(C5CCNCC5)cn4c3)cc(C#N)c2n1` [Compound 42, 8′-fluoro-2-methyl-2′-(piperidin-4-yl)-[6,6′-biimidazo[1,2-a]pyridine]-8-carbonitrile] showed a pIC50 of 5.05 to 6.00.

`COc1cc(-c2cc(F)c3nc(C)cn3c2)cc2cn(C3CCNCC3)nc12` [Compound 545, 5-(8-fluoro-2-methylimidazo[1,2-a]pyridin-6-yl)-7-methoxy-2-(piperidin-4-yl)-2H-indazole] gave a pIC50 of 5.05 to 6.00.

The compound `CNCCc1cn2cc(-c3cc(F)c4nn(C)cc4c3)cc(F)c2n1` [Compound 18, 2-(8-fluoro-6-(7-fluoro-2-methyl-2H-indazol-5-yl)imidazo[1,2-a]pyridin-2-yl)-N-methylethan-1-amine] gave a negative logarithm of the IC50 (pIC50) of 5.05 to 6.00.

`Cc1cn2nc(-c3cc(F)c4nc(NC5CCNC(C)(C)C5)oc4c3)cc(C)c2n1` (stereo not shown) [Compound 485, 6-(2,8-dimethylimidazo[1,2-b]pyridazin-6-yl)-N-(2,2-dimethylpiperidin-4-yl)-4-fluorobenzo[d]oxazol-2-amine] had a pIC50 greater than 7.00.

For `Cc1cn2nc(-c3cc(F)c4nc(NC(=O)C5CC6(CNC6)C5)cn4c3)cc(C)c2n1` [Compound 276], the pIC50 is 6.00 to 7.00.

With `Cc1cn2nc(-c3cc(F)c4nc([C@H]5[C@@H]6CN(C7CC(F)(F)C7)C[C@@H]65)cn4c3)cc(C)c2n1` [Compound 218, 6-(2-((1R,5S,6r)-3-(3,3-difluorocyclobutyl)-3-azabicyclo[3.1.0]hexan-6-yl)-8-fluoroimidazo[1,2-a]pyridin-6-yl)-2,8-dimethylimidazo[1,2-b]pyridazine], the pIC50 was 6.00 to 7.00.

For `Cc1cn2nc(-c3cc(F)c4nc(N5CCC(CN(C)CC6CC6)C5)oc4c3)cc(C)c2n1` (stereo not shown) [Compound 489, 1-cyclopropyl-N-((1-(6-(2,8-dimethylimidazo[1,2-b]pyridazin-6-yl)-4-fluorobenzo[d]oxazol-2-yl)pyrrolidin-3-yl)methyl)-N-methylmethanamine], the negative-log IC50 (pIC50) is greater than 7.00.

Compound `Cc1cn2nc(-c3cc(F)c4nc(C5CCNC(C)C5)cn4c3)ccc2n1` (stereo not shown) [Compound 61, 6-(8-fluoro-2-(2-methylpiperidin-4-yl)imidazo[1,2-a]pyridin-6-yl)-2-methylimidazo[1,2-b]pyridazine] showed a pIC50 greater than 7.00.

`Cc1cc(-c2cc(F)c3nc([C@H]4[C@@H]5CN(C)C[C@@H]54)cn3c2)nn2cc(C(F)F)nc12` [Compound 228, 2-(difluoromethyl)-6-(8-fluoro-2-((1R,5S,6r)-3-methyl-3-azabicyclo[3.1.0]hexan-6-yl)imidazo[1,2-a]pyridin-6-yl)-8-methylimidazo[1,2-b]pyridazine] had a negative logarithm of the IC50 (pIC50) of 6.00 to 7.00.

In turn, `Cc1cn2nc(-c3cc(F)c4nc(C56CC(C7CNC7)(C5)C6)cn4c3)cc(C)c2n1` [Compound 184] had a pIC50 of 6.00 to 7.00.

`Cn1cc2cc(-c3cc(F)c4nc(C5CCNC(C)(C)C5)cn4c3)cc(F)c2n1` (stereo not shown) [Compound 63, 5-(2-(2,2-dimethylpiperidin-4-yl)-8-fluoroimidazo[1,2-a]pyridin-6-yl)-7-fluoro-2-methyl-2H-indazole] gave a pIC50 of 5.05 to 6.00.

`Cc1cn2nc(-c3cc(F)c4nc(N5CCC6(CCCN6C)CC5)oc4c3)cc(C)c2n1` [Compound 514, 6-(2,8-dimethylimidazo[1,2-b]pyridazin-6-yl)-4-fluoro-2-(1-methyl-1,8-diazaspiro[4.5]decan-8-yl)benzo[d]oxazole] showed a negative-log IC50 (pIC50) greater than 7.00.

For the compound `Cc1cn2nc(-c3cc(F)c4nc(N5CCC6(CCN(C)C6)C5)oc4c3)cc(C)c2n1` (stereo not shown) [Compound 501, 6-(2,8-dimethylimidazo[1,2-b]pyridazin-6-yl)-4-fluoro-2-(7-methyl-2,7-diazaspiro[4.4]nonan-2-yl)benzo[d]oxazole], the pIC50 is 6.00 to 7.00.

Consider `Cc1cn2nc(-c3cc(F)c4nc([C@@H]5CCC6(CCNCC6)C5)cn4c3)cc(C)c2n1` (single isomer, unassigned) [Compound 119], for which the pIC50 was greater than 7.00.

On to `COc1cc(-c2cc(C)c3nc(C)nn3n2)cn2cc([C@H]3[C@@H]4CN(C)C[C@@H]43)nc12` [Compound 541, 6-(8-methoxy-2-((1R,5S,6r)-3-methyl-3-azabicyclo[3.1.0]hexan-6-yl)imidazo[1,2-a]pyridin-6-yl)-2,8-dimethyl-[1,2,4]triazolo[1,5-b]pyridazine], for which the pIC50 was 6.00 to 7.00.

As for `Cc1cn2nc(-c3cc(F)c4nc(NC(=O)C5CN(CCF)C5)cn4c3)cc(C)c2n1` [Compound 266, N-(6-(2,8-dimethylimidazo[1,2-b]pyridazin-6-yl)-8-fluoroimidazo[1,2-a]pyridin-2-yl)-1-(2-fluoroethyl)azetidine-3-carboxamide], the pIC50 was greater than 7.00.

`Cc1cn2nc(-c3cc(F)c4nc([C@H]5[C@@H]6CN(C)C[C@@H]65)nn4c3)cc(C)c2n1` [Compound 453, 6-(2,8-dimethylimidazo[1,2-b]pyridazin-6-yl)-8-fluoro-2-[(1S,5R)-3-methyl-3-azabicyclo[3.1.0]hexan-6-yl]-[1,2,4]triazolo[1,5-a]pyridine] gave a pIC50 of 6.00 to 7.00.

`CC(=O)N1CCC(c2cn3cc(-c4cc(C)c5nc(C)cn5n4)cc(F)c3n2)CC1` [Compound 74, 1-[4-[6-(2,8-dimethylimidazo[1,2-b]pyridazin-6-yl)-8-fluoro-imidazo[1,2-a]pyridin-2-yl]-1-piperidyl]ethanone] had a pIC50 of 6.00 to 7.00.

`CN1CCC(c2cn3cc(-c4ccc5nn(C)cc5c4)cc(F)c3n2)CC1` [Compound 28, 5-(8-fluoro-2-(1-methylpiperidin-4-yl)imidazo[1,2-a]pyridin-6-yl)-2-methyl-2H-indazole]: the pIC50 was 5.05 to 6.00.

As for `Cc1cn2nc(-c3cc(F)c4nc(NC5CCN(C6CCC6)CC5)oc4c3)cc(C)c2n1` [Compound 478, N-(1-cyclobutylpiperidin-4-yl)-6-(2,8-dimethylimidazo[1,2-b]pyridazin-6-yl)-4-fluorobenzo[d]oxazol-2-amine], the pIC50 was greater than 7.00.

Compound `Cc1cn2nc(-c3cc(F)c4nc(CC5CCNCC5)cn4c3)cc(C)c2n1` [Compound 238, 6-(8-fluoro-2-(piperidin-4-ylmethyl)imidazo[1,2-a]pyridin-6-yl)-2,8-dimethylimidazo[1,2-b]pyridazine] showed a negative-log IC50 (pIC50) greater than 7.00.

`Cc1cc(-c2cc(F)c3nc(C4CCNCC4)cn3c2)nc2cn(C)nc12` [Compound 92, 5-(8-fluoro-2-(piperidin-4-yl)imidazo[1,2-a]pyridin-6-yl)-2,7-dimethyl-2H-pyrazolo[4,3-b]pyridine] showed a negative-log IC50 (pIC50) greater than 7.00.

As for `Cc1cn2nc(-c3cc(F)c4nc([C@H]5CCC6(CCNCC6)C5)cn4c3)cc(C)c2n1` (single isomer, unassigned) [Compound 114], the negative logarithm of the IC50 (pIC50) is greater than 7.00.

The record behind these values is patent US20250353841A1 (BIOGEN MA INC., priority 2022, published 2025).
